Assay [1] has as its system guinea pig lung parenchymal tissue. Briefly: Immunologically Mediated Contraction of the Parenchymal Strip (IMCPS). The assay is classed as cell-based. The settings on record: Cavia porcellus, inhibition of egg albumin-induced contraction of sensitized guinea pig lung strip, 30 min preincubation, chlorpheniramine 10 μM and indomethacin 100 μM present, active if >=15%, read-out: IMCPS % Inhib @ 100 μM. The method, then: (a) Immunogically Mediated Contraction of the Parenchymal Strip (IMCPS)
It is a modification of the procedure published by K. Forsberg and L. Sorenby in Agents and Actions, Vol. 9 pp. 364-368 (1978). In this test, male Hartley strain guinea pigs weighting 400 to 600 g were sensitized by subcutaneous administration of chicken egg albumin (Sigma A-5503, 1.0 mg, 0.5% solution) and bordetella pertussis, 11×10^9 cells (MassachusettsPublic health Biological Labs) 4 to 8 weeks prior to the experiment. The animals were sacrificed, the heart and lungs were removed en bloc and placed in Krebs solution at room temperature. Lung strips (2.5 cm in length) were cut from the perihperal edge of each lobe. Two strips were removed from each animal and were trimmed to be of equal length. Each strip was suspended in an isolated organ bath (10.0 ml) containing oxygenated Krebs buffer solution at 37.5° C. then attached to a force displacement transducer (Grass FTO3) and placed under an initial tension of 1.0 g. The tissues were allowed to equilibrate for 45-60 min, during which the bathing solution was changed several times. At the end of the equilbration period, chlorpheniramine (10.0μM) and indomethacin (100.0μM) were added to eliminate the contribution of histamine and prostaglandins to the contractile response. The two tissues from each animal were matched so that one tissue served as a control and the test drug dissolved in DMSO was added to the bath containing the other tissue at a final concentration of 100μM. After 30 min, egg albumin was added to each bath and the contractile response was measured as milligrams of tension developed as recorded on a Grass Model 7D polygraph.
(§1) The results of the IMCPS and the HGALP tests, employing the administration of various illustrative compounds of the present invention, are shown in Table I. The compounds are of the formula (I) wherein R^1, R^2, R^3, A and Y are as shown, R^4 and R^5 are hydrogen and k is 3.

The subject of another assay is human granulocyte cells. Kind of assay: Human granulocyte Assay for Lipoxygenase Products (HGALP). Type of assay: cell-based. The settings on record: inhibition of [3H]-lipoxygenase metabolite release; human granulocytes prelabeled with [3H]-arachidonic acid, 10 μM ionophore A23187, 14 μM indomethacin. The method, then:
(b) Human granulocyte Assay for Lipoxygenase Products (HGALP)
This test is a measurement of the inhibition of the synthesis or relase of [3H]-labeled lipoxygenase metabolites released or generated from human granulocyte cells that are prelabeled with [3H]-arachidonic acid. These metabolites include the leukotrienes (e.g., LTB4) which are potent mediators of inflammation and allergy. In this test, a granulocyte enriched fraction is prepared from freshly drawn human blood (50 ml/donor) by standard techniques involving unit gravity separation on ficoll hypaque. […] After washing out unincorporated label, the radiolabeled cells are brought up in incubation buffer (Minimum Essential Medium containing 14 μM indomethacin) to a 10^7 cell/ml concentration. […] Cell suspensions are challeged with 10 μM ionophore A23187 to […], incubations are terminated by the addition of 1 ml ice cold phosphate buffered saline, and cells are pelleted by centrifugation. Supernatants are passed through C18 Sep Pak® cartridges which are then washed twice with 1 ml water. Lipoxygenase metabolites are eluted with two 1 ml volumes of methanol. Eluates are collected in scintillation vials and counted in Aqueous Counting Scintillant (ACS). Radioactivity eluted with methanol is a measure of lipoxygenase metabolites. Values are normalized to vehicle (5 μl DMSO) treated controls and expressed as percent inhibition. Triplicate determinations at each drug concentration are analyzed as log-dose response curves by linear regression analysis from which IC50 values are derived.
as §1

As a reminder, the IC50 is the point on the concentration scale where inhibition reaches its midpoint. `CCCCCc1ccc(OCC(S)CC#CCCCC(=O)O)cc1` (stereo not shown) [Example 12b, 8-Mercapto-9-(4-pentylphenoxy)-5-nonynoic acid]: the inhibition at 100 µM in assay [1] amounted to 29%. Also, the IC50 with human granulocyte cells was 13 µM.

For `O=C(O)CCC/C=C\CC(O)CCc1ccccc1` (stereo not shown) [Example 6, 8-Hydroxy-10-phenyl-5(Z)-decenoic Acid], in assay [1], the inhibition at 100 µM is 9%. The IC50 in the assay with human granulocyte cells was found to be 13 µM.

For `CCCCCCCCCCCCC(=O)C/C=C\CCCC(=O)O` [Example 3, 8-oxo-5-(Z)-eicosenoic Acid], in assay [1], the inhibition at 100 µM is 24%. Further, the IC50 in the assay on human granulocyte cells amounted to 13 µM.

Consider `CCCCCCCCCCCCC(=O)CC#CCCCC(=O)O` [Example 4, 8-Oxo-5-eicosynoic Acid], for which the inhibition at 100 µM in assay [1] stood at 22%. The IC50 with human granulocyte cells was 4.9 µM.

In the case of `CCCCCc1ccc(OCC(O)CC#CCCCC(=O)O)cc1` (stereo not shown) [Example 7b, 8-Hydroxy-9(4-pentylphenoxy)-5-nonynoic acid], in assay [1], the inhibition at 100 µM stood at 29%. Besides, the 50% inhibitory concentration (IC50) with human granulocyte cells turned out to be 12 µM.

Take `O=C(O)CCCC#CCC(O)CCc1ccccc1` (stereo not shown) [Example 5, 8-Hydroxy-10-phenyl-5-decynoic Acid Hydrate (10:1)]: in assay [1], the inhibition at 100 µM fell in the range of 9 to 14%. In the assay on human granulocyte cells, the IC50 is 14.2 µM.

Consider `CCCCCc1ccc(OCC(O)CC#CCCCC(=O)OC)cc1` (stereo not shown) [Example 8, Methyl 8-Hydroxy-9-(4-pentylphenoxy)-5-nonynoate], for which the inhibition at 100 µM in assay [1] was 14%. Also, in the assay on human granulocyte cells, the concentration for half-maximal inhibition (IC50) came out at 8 µM.

`CCCCCc1ccc(OCC(O)C/C=C\CCCC(=O)O)cc1` (stereo not shown) [Example 10, 8-Hydroxy-9-(4-pentylphenoxy)-5-(Z)-nonenoic acid]: in assay [1], the inhibition at 100 µM came out at 28.5%. For the same compound, the 50% inhibitory concentration (IC50) in the assay on human granulocyte cells is 1.1 to 9.5 µM.

As to `CCCCCOc1ccc(OCC(O)CC#CCCCC(=O)O)cc1` (stereo not shown) [Example 14b, 8-Hydroxy-9-(4-pentoxyphenoxy)-5-nonynoic acid], in assay [1], the inhibition at 100 µM was in the range of 0 to 30%. The half-inhibitory concentration (IC50) in the assay on human granulocyte cells was found to be 33 µM.

`CCCCCc1ccc(OCC(O)C/C=C\CCCC(=O)OC)cc1` (stereo not shown) [Example 9, Methyl 8-Hydroxy-9-(4-pentylphenoxy)-5(Z)-nonenoate]: the inhibition at 100 µM in assay [1] came out at 0%. Further, the 50% inhibitory concentration (IC50) with human granulocyte cells turned out to be 14 µM.

Regarding `CCCCCc1ccc(OCC(C/C=C\CCCC(=O)OC)SC(C)=O)cc1` (stereo not shown) [Example 11, Methyl 8-(Acetylthio)-9-(4-pentylphenoxy)-5-(Z)-nonenoate], the inhibition at 100 µM in assay [1] is 3%. Moreover, in the assay on human granulocyte cells, the half-inhibitory concentration (IC50) turned out to be 8.5 µM.

With `CCCCCCCCCCCCC(O)CC#CCCCC(=O)O` (stereo not shown) [Example 1d, 8-Hydroxy-5-eicosynoic acid], the inhibition at 100 µM in assay [1] is 20 to 43%. The 50% inhibitory concentration (IC50) in the assay with human granulocyte cells was 12 µM.

For the compound `CCCCCCCCCCCCC(O)C/C=C\CCCC(=O)O` (stereo not shown) [Example 2, 8-Hydroxy-5(Z)-eicosenoic Acid], the inhibition at 100 µM in assay [1] was found to be 19%. Besides, the IC50 in the assay on human granulocyte cells worked out at 7.5 µM.

`CCCCCc1ccc(OCC(O)CCCCCCC(=O)O)cc1` (stereo not shown) [Example 13, 8-Hydroxy-9-(4-pentylphenoxy)nonanoic Acid]: the inhibition at 100 µM in assay [1] was 6%. Moreover, the IC50 in the assay with human granulocyte cells stood at 2.3 µM.

The record behind these values is patent publication US4908384A, “Fatty acid leukotriene synthesis inhibitors” (McNeilab, Inc., priority 1986, dated 1990).
